We go through three compounds from patent US3976779A, “1,2,3,4-Tetrahydro-carbazole compounds and β-adrenergic compositions” (Boehringer Mannheim G.m.b.H., priority 1974, dated 1976).

In data set [1] the test system is cardiac β-receptor. As to the kind of experiment: Blocking of isoprenalin tachycardia in wake rabbits (β-receptor blocking activity). The note with it: for DE250: wake rabbits, interpolated dosage which limits frequency increase to 250 beats/min, 15 min i.v. infusion, isoprenalin i.v. 30 min after infusion; for Therapeutic Index (LD50:DE250): LD50 mouse i.v. : DE250 wake rabbit i.v.
Procedure: (§1) The following tests were carried out to determine the toxicity and the cardiac β-receptor blocking activity of certain test compounds by determining the inhibition of the heart beat frequency increase induced by intravenous administration of isoprenalin.
The β-receptor blocking activity of the test compounds was tested on wake rabbits weighing between 2 to 3.5 kg. and kept in wooden cages. EKG-electrodes were inserted into the hind quarters of the rabbits s.c. (II. lead) and the heart frequency was measured based on 20 heart beats. The test compounds were then infused through a small tube to the ear vein of the rabbits over a period of 15 minutes. 30 minutes after the infusion isoprenalin (3,4-dihydro-a-[(isopropylamino)-methyl]-benzylalcohol) was injected intravenously at 1 /ug/kg.

Data set [2] in a line: in vivo. The note with it: iv, mouse, i.v., dosage at which 50% of the mice die, read-out: Acute Toxicity LD50 Mouse.
Procedure: as §1

`CC(C)NCC(O)COc1cccc2ccccc12` (stereo not shown) [Compound A, 1-Isopropylamino-3-(1-napthoxy)-2-propanol, reference compound] returned a DE250 in data set [1] of 0.400 mg/kg i.v.
One may read the LD50 as the dose at which mortality reaches 50%. On to `CC(C)NCC(O)COc1cccc2[nH]c3c(c12)CCCC3` (stereo not shown) [Compound I, 1,2,3,4-Tetrahydro-5-(2-hydroxy-3-isopropylamino-propoxy)-carbazole], for which, in data set [1], the “Therapeutic Index (LD50:DE250)” value is given as ~ 200 and the DE250 came to 0.040 mg/kg i.v. In data set [2], the LD50 is ~8 mg/kg.
For `CC(C)(C)NCC(O)COc1cccc2[nH]c3c(c12)CCCC3` (stereo not shown) [Compound II, 1,2,3,4-Tetrahydro-5-(2-hydroxy-3-tert. butylaminopropoxy)-carbazole], in that order: 875, 0.008 mg/kg i.v and 7 mg/kg.
